Assay results from publication PMC4046051, “Two M-T hook residues greatly improve the antiviral activity and resistance profile of the HIV-1 fusion inhibitor SC29EK” (Retrovirology, 2014).
Peptide text beside a SMILES is read from it.

Experiments:
[1] = test system: wild-type HIV-1NL4-3; assay type: cell-based; settings: for IC50: wild-type HIV-1NL4-3, 100 TCID50, TZM-bl cells, two days, luciferase, mean ± SD of three independent experiments, SD, read-out: IC50 Replication
Procedure: The inhibition of peptides on HIV-1 replication was determined by a molecular cloned wild-type HIV-1NL4–3. In brief, the virus stock was harvested and quantified 48 h post-transfection. 100 TCID50 viruses were used to infect TZM-bl cells in the presence or absence of serially diluted peptides. Two days post-infection, the cells were harvested and lysed in reporter lysis buffer and the luciferase activity was measured as described above.

[2] = test system: HIV-1 NL4-3 V38M; test: Inhibition of T20-resistant HIV-1 variants: V38M; assay type: cell-based; settings: for IC50: mean ± SD of three independent experiments, SD
Procedure: (§1) The inhibition of peptides on the HIV-1 entry was determined by single-cycle infection assay as described previously. Briefly, HIV-1 pseudovirus was generated by cotransfecting 293 T cells with an Env-expressing plasmid and a backbone plasmid pSG3^Δenv that encodes Env-defective, luciferase-expressing HIV-1 genome. The supernatants were harvested and filtered 48 h after transfection and 50% tissue culture infectious dose (TCID50) was determined in TZM-bl cells. The peptides were prepared with 3-fold dilutions and mixed with 100 TCID50 viruses and then incubated 1 h at room temperature. The mixture was added to TZM-bl cells (10^4/well) and incubated 48 h at 37°C. The luciferase activity was measured using luciferase assay reagents and a Luminescence Counter (Promega).

[3] = test system: HIV-1 NL4-3 V38A/N42T; test: Inhibition of T20-resistant HIV-1 variants: V38A/N42T; assay type: cell-based; settings: for IC50: mean ± SD of three independent experiments, SD
Procedure: as §1

[4] = test system: HIV-1 NL4-3 N43K; test: Inhibition of T20-resistant HIV-1 variants: N43K; assay type: cell-based; settings: for IC50: mean ± SD of three independent experiments
Procedure: as §1

[5] = test system: HIV-1 NL4-3 V38A; test: Inhibition of T20-resistant HIV-1 variants: V38A; assay type: cell-based; settings: for IC50: mean ± SD of three independent experiments, SD
Procedure: as §1

[6] = test system: HIV-1 NL4-3 I37T/N43K; test: Inhibition of T20-resistant HIV-1 variants: I37T/N43K; assay type: cell-based; settings: for IC50: mean ± SD of three independent experiments
Procedure: as §1

[7] = test system: HIV-1 NL4-3 D36S/V38M; test: Inhibition of T20-resistant HIV-1 variants: D36S/V38M; assay type: cell-based; settings: for IC50: mean ± SD of three independent experiments, SD
Procedure: as §1

[8] = test system: HIV-1NL4-3 pseudovirus; assay type: cell-based; settings: for IC50: 100 TCID50, TZM-bl cells, 48 h, luciferase, mean ± SD of three independent experiments, SD, read-out: IC50 Entry
Procedure: as §1

[9] = test system: HIV-1 NL4-3 I37T; test: Inhibition of T20-resistant HIV-1 variants: I37T; assay type: cell-based; settings: for IC50: mean ± SD of three independent experiments, SD
Procedure: as §1

[10] = biological target: T1, six-helical bundle (6-HB) of N36 and biotinylated-C34 (Human immunodeficiency virus type 1 group M subtype B, UniProt P04578); test: Inhibition of 6-HB formation, NC-1 capture ELISA; assay type: biochemical, HIV-1; settings: for IC50: biotinylated-C34 0.1 μM, N36 0.1 μM, 30 min room temperature, 3 independent experiments
T1 construct: made in house; host or cells: chemical synthesis (solid-phase FMOC), no expression host
Procedure: The 6-HB core-specific monoclonal antibody NC-1 was obtained from Dr. Shibo Jiang in the New York Blood Center (New York, NY) through the ARRRP, Division of AIDS, NIAID, National Institute of Health. The inhibitory activity of SC29EK or MT-SC29EK on the 6-HB formation was measured by a modified ELISA as previously described. Briefly, a 96-well polystyrene plate was coated with 2 μg/ml NC-1 in 0.1 M Tris buffer (pH 8.8). A tested peptide at graded concentrations was mixed with the biotinylated-C34 (0.1 μM) and incubated with N36 (0.1 μM) at room temperature for 30 min. The mixture was then added to the NC-1-coated plate, followed by incubation for 30 min and washing with a washing buffer (PBS containing 0.1% Tween 20) three times. Then horseradish peroxidase (HRP)-labeled streptavidin (Invitrogen) and the substrate 3,3,5,5- tetramethylbenzidine (Sigma) were sequentially added. Absorbance at 450 nm (A450) was measured using an ELISA reader.

[11] = test system: HIV-1 NL4-3 Q40H; test: Inhibition of T20-resistant HIV-1 variants: Q40H; assay type: cell-based; settings: for IC50: mean ± SD of three independent experiments, SD
Procedure: as §1

[12] = biological target: T2, NHR peptide N36 (HIV-1 gp41) (Human immunodeficiency virus type 1 group M subtype B, UniProt P04578); test: CD thermal denaturation of 6-HB formed by CHR peptide and N36; assay type: binding; settings: CHR peptide + N36, each 10 μM in PBS pH 7.2; CD at 222 nm, 20-98°C
T2 construct: made in house; host or cells: chemical synthesis (solid-phase FMOC), no expression host
Procedure: (§2) CD spectroscopy was performed according to our protocols described previously. […] The final concentration of each peptide was 10 μM in PBS buffer (pH 7.2). The CD spectra were acquired on a Jasco spectropolarimeter (model J-815) using a 1 nm bandwidth with a 1 nm step resolution from 195 to 260 nm at room temperature. The spectra were corrected by subtraction of a blank corresponding to the solvent. Data were averaged over three accumulations. The α-helical content was calculated from the CD signal by dividing the mean residue ellipticity [θ] at 222 nm by the value expected for 100% helix formation (-33,000 degrees.cm^2.dmol^-1). The thermal denaturation experiment was performed by monitoring the change in ellipticity [θ] at 222 nm at the increasing temperature (20–98°C) using temperature controller. The temperature was increased at a rate of 1.2°C per min; data were acquired at a 1 nm bandwidth at 222 nm at a frequency of 0.25 Hz. The melting curve was smoothened, and the midpoint of the thermal unfolding transition (Tm) values were taken as the maximum of the derivative d [θ]222/dT. The Tm value was detected at a peptide concentration of 10 μM in PBS buffer.

[13] = test system: HIV-1 NL4-3 WT; test: Inhibition of T20-resistant HIV-1 variants panel: WT; assay type: cell-based; settings: for IC50: mean ± SD of three independent experiments, SD
Procedure: as §1

[14] = biological target: T2, NHR peptide N36 (HIV-1 gp41); test: Isothermal titration calorimetry (ITC) with N36; assay type: binding; settings: 25°C; for Kd: 1 mM N36 injected into 100 μM peptide, read-out: binding constant (K) (converted)
Procedure: ITC assay was performed using an ITC200 Microcalorimeter instrument (MicroCal, USA) as described previously. In brief, 1 mM N36 dissolved in ddH20 was injected into the chamber containing 100 μM SC29EK or MT-SC29EK. The experiments were carried out at 25°C. The time between injections was 240 s and the stirring speed was 500 rpm. The heats of dilution were determined in control experiments by injecting N36 into ddH20 and subtracted from the heats produced in the corresponding peptide-peptide binding experiments. Data acquisition and analysis were performed using MicroCal Origin software (version 7.0).

[15] = test system: N36 mutant V38A; test: CD thermal denaturation of 6-HB formed with N36 mutant V38A; assay type: binding, HIV-1; settings: CHR peptide + N36 V38A mutant, each 10 μM in PBS
Procedure: as §2

[16] = test system: molecular clone of HIV-1NL4-3; test: In vitro selection of HIV-1 resistance in MT-4 cells; assay type: cell-based; settings: 1.5-2 fold escalating concentrations, after 35 generations of passage over 7 months
Procedure: The in vitro selection of HIV-1 resistance to peptide inhibitors was performed as described previously. Briefly, MT-4 cells were seeded at 1 × 10^4 in RPMI 1640 medium containing 10% fetal bovine serum on 12-well plates. The molecular clone of HIV-1NL4–3 was used to infect the cells in the presence or absence of diluted peptide inhibitors (SC29EK, MT-SC29EK, SC22EK and MT-SC22EK). The cells were incubated at 37°C with 5% CO2 until an extensive cytopathic effect was observed. The culture supernatants were harvested and used for next passage on fresh MT-4 cells with 1.5-2 fold increasing concentrations of peptide. Cells and supernatant were harvested at regular time points and stored at -80°C.

[17] = biological target: T3, N36 mutant I37T/N43K (Human immunodeficiency virus type 1 group M subtype B, UniProt P04578, I548T/N554K); test: CD thermal denaturation of 6-HB formed with N36 mutant I37T/N43K; assay type: binding, HIV-1; settings: CHR peptide + N36 I37T/N43K mutant, each 10 μM in PBS
T3 construct: A panel of N36-based peptides carrying a single (I37T, V38A, Q40H, N43K) or double (I37T/N43K and V38A/N42T) NHR mutations; made in house; host or cells: chemical synthesis (solid-phase FMOC), no expression host
Procedure: as §2

| Compound | IC50 [1] [nM] | n-fold relative to the IC50 of the wild-type (WT) virus [2] | IC50 [2] [nM] | n-fold relative to the IC50 of the wild-type (WT) virus [3] | IC50 [3] [nM] | n-fold relative to the IC50 of the wild-type (WT) virus [4] | n-fold relative to the IC50 of the wild-type (WT) virus [5] | IC50 [5] [nM] | n-fold relative to the IC50 of the wild-type (WT) virus [6] | n-fold relative to the IC50 of the wild-type (WT) virus [7] | IC50 [7] [nM] | IC50 [8] [nM] | n-fold relative to the IC50 of the wild-type (WT) virus [9] | IC50 [9] [nM] | IC50 [10] [nM] | n-fold relative to the IC50 of the wild-type (WT) virus [11] | IC50 [11] [nM] | Tm (midpoint of the thermal unfolding transition) of 6-HB [12] [°C] | n-fold relative to the IC50 of the wild-type (WT) virus [13] | IC50 [13] [nM] | also measured |
| --- | --- | --- | --- | --- | --- | --- | --- | --- | --- | --- | --- | --- | --- | --- | --- | --- | --- | --- | --- | --- | --- |
| CC[C@H](C)[C@H](NC(=O)[C@H](CC(C)C)NC(=O)[C@H](CCC(=O)O)NC(=O)[C@H](CCC(=O)O)NC(=O)[C@@H](NC(=O)[C@H](CCCCN)NC(=O)[C@H](CCCCN)NC(=O)[C@@H](NC(=O)[C@H](Cc1ccc(O)cc1)NC(=O)[C@H](CCC(=O)O)NC(=O)[C@H](CCC(=O)O)NC(=O)[C@@H](NC(=O)[C@H](CCCCN)NC(=O)[C@H](CCCCN)NC(=O)[C@H](CC(=O)O)NC(=O)[C@H](Cc1c[nH]c2ccccc12)NC(=O)[C@H](CCC(=O)O)NC(=O)[C@H](CCC(=O)O)NC(=O)[C@H](Cc1c[nH]c2ccccc12)NC(=O)[C@@H](NC(=O)[C@H](CCSC)NC(C)=O)[C@@H](C)O)[C@@H](C)CC)[C@@H](C)O)[C@@H](C)CC)C(=O)N[C@@H](CCCCN)C(=O)N[C@@H](CCCCN)C(=O)N[C@@H](CO)C(=O)N[C@@H](CCC(=O)O)C(=O)N[C@@H](CCC(=O)O)C(=O)N[C@@H](CCC(N)=O)C(=O)N[C@@H](CCC(N)=O)C(=O)N[C@@H](CCCCN)C(=O)N[C@@H](CCCCN)C(=O)N[C@@H](CC(N)=O)C(N)=O [MT-SC29EK] (Ac-MTWEEWDKKIEEYTKKIEELIKKSEEQQKKN-NH2) | 0.2 | 2.8 | 1.7 | 1 | 0.6 | 12 | 1 | 0.6 ± 0.1 | 35.3 | 2 | 1.2 | 0.7 | 1.3 | 0.8 ± 0.2 | 600 | 1.3 | 0.8 ± 0.1 | 79.1 | 1 | 0.6 ± 0.1 | fold increase of potency over SC29EK, replication ([1]; wild-type HIV-1NL4-3): 4.5 fold; IC50 ([4]; SD): 7.2 ± 0.2 nM; IC50 ([6]; SD): 21.2 ± 4.4 nM; fold increased potency over SC29EK, entry [8]: 3.1 fold; fold increase of 6-HB blocking potency over SC29EK [10]: 23 fold; Kd [14]: 15.5 nM; fold increase of K value compared to SC29EK [14]: 4.7 fold |
| CC[C@H](C)[C@H](NC(=O)[C@H](CC(C)C)NC(=O)[C@H](CCC(=O)O)NC(=O)[C@H](CCC(=O)O)NC(=O)[C@@H](NC(=O)[C@H](CCCCN)NC(=O)[C@H](CCCCN)NC(=O)[C@@H](NC(=O)[C@H](Cc1ccc(O)cc1)NC(=O)[C@H](CCC(=O)O)NC(=O)[C@H](CCC(=O)O)NC(=O)[C@@H](NC(=O)[C@H](CCCCN)NC(=O)[C@H](CCCCN)NC(=O)[C@H](CC(=O)O)NC(=O)[C@H](Cc1c[nH]c2ccccc12)NC(=O)[C@H](CCC(=O)O)NC(=O)[C@H](CCC(=O)O)NC(=O)[C@H](Cc1c[nH]c2ccccc12)NC(C)=O)[C@@H](C)CC)[C@@H](C)O)[C@@H](C)CC)C(=O)N[C@@H](CCCCN)C(=O)N[C@@H](CCCCN)C(=O)N[C@@H](CO)C(=O)N[C@@H](CCC(=O)O)C(=O)N[C@@H](CCC(=O)O)C(=O)N[C@@H](CCC(N)=O)C(=O)N[C@@H](CCC(N)=O)C(=O)N[C@@H](CCCCN)C(=O)N[C@@H](CCCCN)C(=O)N[C@@H](CC(N)=O)C(N)=O [SC29EK] (Ac-WEEWDKKIEEYTKKIEELIKKSEEQQKKN-NH2) | 0.9 ± 0.2 | 8.4 | 15.1 ± 1.8 | 20.9 | 37.7 ± 6.4 | >138.9 | 9 | 16.2 ± 1.9 | >138.9 | 6.5 | 11.7 ± 0.7 | 2.2 ± 0.3 | 8.3 | 15 ± 0.3 | 14000 | 46.6 | 83.8 ± 10.8 | 69.1 | 1 | 1.8 ± 0.2 | Tm of 6-HB [15]: 62.1 °C; IC50 [4]: > 250 nM; IC50 [6]: > 250 nM; peptide concentration reached during in vitro selection of resistant virus [16]: 2,650 nM; Kd [14]: 71.9 nM; Tm of 6-HB [17]: 61.1 °C |
